The test system of one test is HT-1080 cells. Description: Erastin-induced death in HT-1080 cells with co-treated inhibitors (viability, microscopy). The following applies: for effect on erastin-induced ferroptosis (glutamine metabolism modulators): HT-1080 and BJeLR cells, media with glucose and Gln, AOA 2 mM. Type of test: cell-based, human. On the procedure: (§1) Cell viability was typically assessed in 384-well format by Alamar Blue (Invitrogen) fluorescence (ex/em 530/590) measured on a Victor3 platereader (Perkin Elmer, Waltham, Mass.). In some experiments, Trypan Blue dye exclusion counting was performed using an automated cell counter (ViCell, Beckman-Coulter Inc., Brea, Calif.). Cell viability in test conditions is reported as a percentage relative to the negative control treatment.
Phase contrast images were acquired using an AMG EVOS FL (Advanced Microscopy Group) microscope equipped with a 10× phase-contrast objective. Three independent fields were acquired for each experimental condition. Representative samples from one field of view are shown.

For test [1], the system named is erastin (10 μM)-treated HT-1080 cells. Description: Inhibition of death in erastin (10 μM)-treated HT-1080 cells, viability by Alamar Blue. The class given is cell-based, human. On the procedure: as §1
Flow cytometry data was analyzed using FloJo (9.3.2, Tree Star, Inc., Ashland, Oreg.). Chemical structures were drawn using ChemDraw Ultra (Cambridgesoft, Cambridge, Mass.). Computational determination of log P (Slog P function) was performed using MOE 2010.10 (Chemical Computing Group, Montreal, […].). Viability data was analyzed using Excel (Microsoft Corp., […].). Summary data and heatmaps were generated using R. Dose-response curves were computed by 4-parameter logistic regression in Prism 5.0c (GraphPad Software). Images were manipulated using Photoshop CS4 and Illustrator CS4 (Adobe, San Jose, Calif.).
The ability of various compounds disclosed herein to inhibit death in erastin (10 μM)-treated HT-1080 cells were tested. Cell viability was assessed by Alamar Blue. EC50 values (nM) were computed from dose response curves.
(The colour change of resazurin is a common sign of viable cells or microbes.)

The mark [2] stands for this setting: Homo sapiens, HT-1080, inhibition of death in erastin (10 μM)-treated HT-1080 cells, Alamar Blue, from dose response curves.

pEC50: −log10 of the molar value.

Broadly, the pEC50 is the negative decadic logarithm of the EC50, by convention in mol/L. Low values mean a large EC50, high ones a small EC50.

For `NOCC(=O)O` [AOA, aminooxyacetic acid], the “effect on erastin-induced ferroptosis (glutamine metabolism modulators)” value (“effect on erastin-induced ferroptosis” for short) with HT-1080 cells is on record as “rescued”. On to `CCOC(=O)c1ccc(NC2CCNCC2)c(N)c1` [SRS8-81, ethyl 3-amino-4-(piperidin-4-ylamino)benzoate], for which the pEC50 in test [1] (setting [2]) was 6.46.

With `CCOC(=O)c1cnc(NC2CCCCC2)c(NCc2ccccc2)c1` [SRS14-91, ethyl 5-(benzylamino)-6-(cyclohexylamino)pyridine-3-carboxylate], the pEC50 in test [1] (setting [2]) is 7.32. Regarding `Cc1ccc(N(CC(=O)O)CC(=O)O)c(OCCOc2cc3cc(-c4ncc(C(=O)O)o4)oc3cc2N(CC(=O)O)CC(=O)O)c1` [Fura-2], the “effect of co-treatment on erastin-induced death” value (from here on “effect of co-treatment”) with HT-1080 cells (HT-1080 cells) was “had no effect on erastin-induced death”. On to `O=C(O)CN(CCOCCOCCN(CC(=O)O)CC(=O)O)CC(=O)O` [EGTA], for which the “effect of co-treatment” value in the test on HT-1080 cells (HT-1080 cells) is “had no effect on erastin-induced death”. The compound `CCOC(=O)c1ccc(NC2CCCCC2)c(NCc2ccc(F)c(C#N)c2)c1` [SRS12-54, ethyl 3-(3-cyano-4-fluorobenzylamino)-4-(cyclohexylamino)-benzoate] had a pEC50 in test [1] (setting [2]) of 6.80.

In test [1] (inhibition of death in erastin (10 μM)-treated HT-1080 cells, Alamar Blue, from dose response curves), `CCOC(=O)c1ccc(NC2CCC(C(=O)OC(C)(C)C)CC2)c(N)c1` (stereo not drawn) [SRS8-46, ethyl 3-amino-4-(4-(tert-butoxycarbonyl)cyclohexylamino) benzoate] had a pEC50 of 6.29. Turning to `CCCCCCCCN(CCCCCCCC)c1ccc(C(=O)OCC)cc1N` [SRS12-12, ethyl 3-amino-4-(dioctylamino)benzoate], the negative-log EC50 (pEC50) in test [1] (setting [2]) was below 5.00. For `CCOC(=O)c1ccc(NN2CCN(C)CC2)c(N)c1` [SRS8-53, ethyl 3-amino-4-(4-methylpiperazin-1-ylamino)benzoate], in test [1] (setting [2]), the pEC50 is 5.44. `Nc1ccccc1NC1CCCCC1` [SRS8-75, N1-cyclohexylbenzene-1,2-diamine]: the negative-log EC50 (pEC50) in test [1] (Homo sapiens, HT-1080) was 6.48. As for `c1ccc(-c2ccccn2)nc1` [2,2-bipyridyl], the “protection from death on late addition” value with HT-1080 cells (HT-1080 cells, added up to 6 hours after erastin) is “substantial protection from death”.

Consider `CCOC(=O)c1ccc(Cl)c(N)c1` [SRS8-62, ethyl 3-amino-4-chlorobenzoate], for which the pEC50 in test [1] (setting [2]) was below 5.00. As to `CCOC(=O)c1ccc(NC2CCCCC2)c(NCc2ccccn2)c1` [SRS12-46, ethyl 4-(cyclohexylamino)-3-(pyridin-2-ylmethylamino)-benzoate], in test [1] (setting [2]), the pEC50 was 7.49.

Consider `NCCOCCOC(=O)c1ccc(NC2CCCCC2)c(N)c1` [SRS8-43, 2-(2-aminoethoxy)ethyl 3-amino-4-(cyclohexylamino)benzoate], for which the pEC50 in test [1] (Homo sapiens, HT-1080) was 6.38.

Turning to `CCOC(=O)c1cnc(NC2CCCCC2)c(N)c1` [SRS14-86, ethyl 5-amino-6-(cyclohexylamino)pyridine-3-carboxylate], the pEC50 in test [1] (setting [2]) was 6.26. The same measure, in the same setting: with `CCOC(=O)c1ccc(NC2CCOCC2)c(N)c1` [SRS8-41, ethyl 3-amino-4-(tetrahydro-2H-pyran-4-ylamino)benzoate] the figure was 5.84; with `CCOC(=O)c1ccc(NC2C3CC4CC(C3)CC2C4)c(NCc2ccncc2)c1` (stereo not drawn) [SRS15-21, ethyl 4-(2-adamantylamino)-3-((pyridin-4-ylmethyl)amino)-benzoate], above 8.30; with `CCOC(=O)c1ccc(NC23CC4CC(CC(C4)C2)C3)c(NCc2ccncc2)c1` [SRS15-24, ethyl 4-(1-adamantylamino)-3-((pyridin-4-ylmethyl)amino)-benzoate], 8.05. In turn, `CCOC(=O)c1ccc(NC2CCCCCC2)c(N)c1` [SRS8-90, ethyl 3-amino-4-(cycloheptylamino)benzoate] gave a pEC50 in test [1] (setting [2]) of 6.89. In the case of `CCOC(=O)c1ccc(NC2CCCCC2)c(NCc2ccc([N+](=O)[O-])cc2)c1` [SRS12-36, ethyl 4-(cyclohexylamino)-3-((4-nitrobenzyl)amino)benzoate], the pEC50 in test [1] (setting [2]) was 7.46. The same measure, in the same setting: under `CCOC(=O)c1ccc(NC2CCCCC2)c(NCc2cncnc2)c1` [SRS13-35, ethyl 4-(cyclohexylamino)-3-(pyrimidin-5-ylmethylamino)-benzoate] stands 7.57; under `CCOC(=O)c1cnc(NC2CCCCC2)c(NCc2ccncn2)c1` [SRS14-93, ethyl 6-(cyclohexylamino)-5-(pyrimidin-4 ylmethylamino)-pyridine-3-carboxylate], 5.81. `CC(=O)OCOC(=O)CN(CC(=O)OCOC(C)=O)c1ccccc1OCCOc1ccccc1N(CC(=O)OCOC(C)=O)CC(=O)OCOC(C)=O` [BAPTA-AM]: in the test with HT-1080 cells (HT-1080 cells), the “effect of co-treatment” value was “had no effect on erastin-induced death”.

Consider `CCOC(=O)c1ccc(NC2CCCCC2)c(NCc2cc(F)cc(F)c2)c1` [SRS12-59, ethyl 4-(cyclohexylamino)-3-(3,5-difluorobenzylamino)-benzoate], for which the pEC50 in test [1] (setting [2]) was 7.02. In the case of `CCOC(=O)c1cc(N)c(NC2CCCCC2)cc1C` [SRS14-58, ethyl 5-amino-4-(cyclohexylamino)-2-methylbenzoate], the pEC50 in test [1] (setting [2]) is 7.55. This pEC50 is 0.53 log units higher than that of the compound before.

`CCOC(=O)c1ccc(NC2CCC(C(C)(C)C)CC2)c(N)c1` (stereo not drawn) [SRS8-92, ethyl 3-amino-4-(4-tert-butylcyclohexylamino)benzoate] gave a pEC50 in test [1] (setting [2]) of 7.38. The pEC50 values of the last two compounds are within 0.2 log units of each other.

In test [1] (setting [2]), `CCOC(=O)c1ccc(NC23CC4CC(CC(C4)C2)C3)c(N)c1` [SRS15-18, ethyl 3-amino-4-(1-adamantylamino)benzoate] showed a pEC50 of 7.06.

As to `CC(C)(C)OC(=O)CCOCCOC(=O)c1ccc(NC2CCCCC2)c(N)c1` [SRS8-37, 2-(2-(tert-butoxycarbonyl)ethoxy)ethyl 3-amino-4-(cyclohexylamino)benzoate], in test [1] (setting [2]), the pEC50 is 6.80.

`CCOC(=O)c1ccc(NC2C3CC4CC(C3)CC2C4)c(NCc2cncnc2)c1` (stereo not drawn) [SRS15-22, ethyl 4-(2-adamantylamino)-3-(pyrimidin-5-ylmethylamino)-benzoate] gave a negative logarithm of the EC50 (pEC50) in test [1] (setting [2]) of 7.68. As to `CCOC(=O)c1ccc(NC2CCC(C(C)(C)C)CC2)c(NCc2cncnc2)c1` (stereo not drawn) [SRS13-37, ethyl 4-(4-tert-butylcyclohexylamino)-3-(pyrimidin-5-ylmethylamino)benzoate], in test [1] (setting [2]), the pEC50 was 7.82. As to `COC(=O)CCC(=O)C(=O)OC` [DMK, dimethyl alphaketoglutarate], in the test on HT-1080 cells, the “effect on erastin-induced ferroptosis” value is reported as “lethality of erastin was restored”. Consider `CCOC(=O)c1ccc(NC2CCCC2)c(N)c1` [SRS8-73, ethyl 3-amino-4-(cyclopentylamino)benzoate], for which the pEC50 in test [1] (setting [2]) is 6.92.

In test [1] (setting [2]), `CCOC(=O)c1ccc(CNc2cc(C(=O)OCC)ccc2NC2CCCCC2)cc1` [SRS12-84, ethyl 4-(cyclohexylamino)-3-(4-(ethoxycarbonyl)benzylamino)-benzoate] showed a negative logarithm of the EC50 (pEC50) of 7.28. Against the preceding compound, the pEC50 is 0.36 log units higher. `CCOC(=O)c1cnc(NC2CCCCC2)c(NCc2ccncc2)c1` [SRS14-92, ethyl 6-(cyclohexylamino)-5-(pyridin-4-ylmethylamino)pyridine-3-carboxylate]: in test [1] (setting [2]), the pEC50 was 6.71.

In the case of `CCOC(=O)c1ccc(NC23CC4CC(CC(C4)C2)C3)c(NCc2cncnc2)c1` [SRS15-25, ethyl 4-(1-adamantylamino)-3-(pyrimidin-5-ylmethylamino)-benzoate], the pEC50 in test [1] (setting [2]) was 7.27. `CCOC(=O)c1ccc(NC2CCCCCCC2)c(N(C)C)c1` [SRS9-01, ethyl 4-(cyclooctylamino)-3-(dimethylamino)benzoate]: the pEC50 in test [1] (setting [2]) is 5.46. This pEC50 is 1.81 log units lower than that of the compound before. `CCOC(=O)c1ccc(NC2C3CC4CC(C3)CC2C4)c(N)c1` (stereo not drawn) [SRS15-17, ethyl 3-amino-4-(2-adamantylamino)benzoate] gave a negative logarithm of the EC50 (pEC50) in test [1] (setting [2]) of 6.77. The same measure, in the same setting: under `CCOC(=O)c1ccc(NC2C3CC4CC(C3)CC2C4)c(NCc2ccccc2)c1` (stereo not drawn) [SRS15-20-mono, ethyl 3-(benzylamino)-4-(2-adamantylamino)benzoate] stands 7.66. In test [1] (setting [2]), `CCOC(=O)c1ccc(NC2CCCCC2)c(NCc2ccc3ccccc3c2)c1` [SRS12-51, ethyl 4-(cyclohexylamino)-3-(naphthalen-2-ylmethylamino)-benzoate] showed a pEC50 of 7.25. Same read-out and setting: under `CCOC(=O)c1ccc(NC2CCCCCCC2)c(C(=O)OC(C)(C)C)c1` [SRS8-91, ethyl 3-(tert-butoxycarbonyl)-4-(cyclooctylamino)benzoate] stands below 5.00; under `CCOC(=O)c1cc(N)c(NC2CCCCC2)cc1F` [SRS14-55, ethyl 5-amino-4-(cyclohexylamino)-2-fluorobenzoate], 6.98; under `CCOC(=O)c1cc(N)c(NC2CCCCC2)cc1Cl` [SRS14-57, ethyl 5-amino-2-chloro-4-(cyclohexylamino)benzoate], 7.27.

For `O=C(O)C(Cl)Cl` [DCA, dichloroacetic acid], in the test with HT-1080 cells, the “effect on erastin-induced ferroptosis” value was “had no effect”. In test [1] (setting [2]), `CCOC(=O)c1ccc(NC2CCC2)c(N)c1` [SRS8-71, ethyl 3-amino-4-(cyclobutylamino)benzoate] gave a pEC50 of 6.58. For `CCOC(=O)c1ccc(NC2CCCCC2)c(NCc2ccc(C(=O)OC)cc2)c1` [SRS12-69, ethyl 4-(cyclohexylamino)-3-(4-(methoxycarbonyl)-benzylamino)benzoate], the pEC50 in test [1] (setting [2]) was 7.24.

Values taken from US9580398B2, “Compounds, compositions, and methods for modulating ferroptosis and treating excitotoxic disorders” (The Trustees of Columbia University in the City of New York, priority 2012, dated 2017).
